Measurements as given in patent US9594084B2, “Phosphorylation of histones and uses thereof” (H. LEE MOFFITT CANCER CENTER AND RESEARCH INSTITUTE, priority 2012, dated 2017).

Legend:
[1] = system: pTyr37-H2B upstream of the Hist1 cluster; assay: Native ChIP-qPCR with pTyr37-H2B antibody at Hist1 Site I and II in synchronized MEFs; type: cell-based, mouse; details: 6.30 hours post-release
Method: FIG. 1A is a diagram illustrating the position of histone genes in mouse Hist1 subcluster 1 showing two pTyr37-H2B binding sites. Starting nucleotide position is shown above. Subclusterl is conserved between human and mouse. FIG. 1B-1D are bar graphs showing Native Chromatin immunoprecipitation (ChIP) (% input DNA) in synchronized MEFs treated with WEE1 inhibitor or untreated and harvested at 0 and 6.30 hours post-release. Native ChIP was performed using pTyr37-H2B or IgG antibodies followed by quantitative PCR using primers corresponding to Site I (FIG. 1B), Site II (FIG. 1C) and control site (FIG. 1D). Data shown are representative of three independent experiments. *p=0.001; **p=0.006. FIG. 1E is bar graph showing ChIP in synchronized MEFs harvested at 0 and 6.30 hours post-release using WEE1 or IgG antibodies followed by quantitative PCR using primers corresponding to Site II. […] FIG. 1F is bar graph showing ChIP in cells transfected with control or WEE1 siRNAs performed using pTyr37-H2B antibodies followed by quantitative PCR using primers corresponding to Site II. […]
As a first step, extensive standardization of pTyr37-H2B antibodies were performed for its usage in ChIP. […] Pellets were resuspended and the resulting DNA was quantified on a NanoDrop spectrophotometer. Extrapolation to the original chromatin volume allowed quantitation of the total chromatin yield. […]

[2] = system: core histone genes located in Hist1 cluster; assay: qRT-PCR of histone genes (8-histone gene signature) in synchronized cells; type: cell-based; details: MK1775 0.6 uM, 14 hr, 8.30 hours post-release
Method: FIG. 33a-33h show a 8-histone gene signature. a-h, Synchronized cells treated with WEE1 inhibitor, MK1775 (0.6 uM, 14 hr) were harvested at indicated time points post-release. Total RNA was prepared followed by quantitative RT-PCR for 8 histone genes.
Human cells have 55 distinct histone genes each encoding a fraction of core histones. This study determined histone levels using 20 of these genes. In untreated cells, rapid decrease in transcripts of all of these histone genes was observed when RNA levels of 6.30 hours post-release samples (late S phase) were compared with 8.30 hours post-release (G2/M phase) samples (FIGS. 33a-33h).
Based on extensive transcriptional profiling of 20 histone genes, this study identified 8 genes (H2Bm, H2bn, H2Bl, H3 h, H4j, H2Ai, H2Ak and H2Bk) as being representative of global histone transcriptional output, termed as the 8-histone gene signature.

5-hmC levels = assay: Slot blot of genomic DNA with 5-hmC and 5-mC antibodies; type: cell-based
Method: SBC12, T98G and HEK293 cells were treated with WEE1 inhibitor, MK1775 (0.6 μM, 24 hr). Blots were incubated with 5-hmC and 5-mC antibodies.
Genomic DNA was isolated, blotted by slot blot, followed by immunoblotting with 5-hmC and 5-mC antibodies. […] 5-hmC containing plasmid DNA (Zymo research) was used as positive control.

In the case of `C=CCn1c(=O)c2cnc(Nc3ccc(N4CCN(C)CC4)cc3)nc2n1-c1cccc(C(C)(C)O)n1` [MK-1775], the “occurrence of pTyr37-H2B at site I and II” value [1] was “significantly reduced”, the “histone mRNA levels” value [2] was “did not decrease” and the 5-hmC levels (5-hmC levels; HEK293 cells, 0.6 μM, 24 hr) was “remained unchanged”. The 5-hmC levels (5-hmC levels; SBC12 melanoma derived cell line, 0.6 μM, 24 hr) was “significant upregulation”, the 5-hmC levels (5-hmC levels; T98G GBM-derived cells, 0.6 μM, 24 hr) was “significant upregulation” and the 5-mC levels (5-hmC levels; immunoblotting with 5-mC antibodies, 0.6 μM, 24 hr) was “concomitant decrease”. For the same compound, the 5-hmC levels (5-hmC levels; summary statement) was “restored”.
